Legend:
[1] = molecular target: Ribosomal protein S6 kinase beta-1 (Homo sapiens) (UniProt P23443); details: Compound concentration 1000.0 nM
[2] = molecular target: Insulin-like growth factor 1 receptor (Homo sapiens) (UniProt P08069); details: Compound concentration 1000.0 nM
[3] = tested on: ALK tyrosine kinase receptor (Homo sapiens), Q9UM73 [C1156Y]; details: Compound concentration 1000.0 nM
[4] = molecular target: Mitogen-activated protein kinase kinase kinase 19 (Homo sapiens) (UniProt Q56UN5); details: Compound concentration 1000.0 nM
[5] = molecular target: Serine/threonine-protein kinase TBK1 (Homo sapiens) (UniProt Q9UHD2); details: Compound concentration 1000.0 nM
Chain of Serine/threonine-protein kinase TBK1 (Homo sapiens) (Q9UHD2 whole entry): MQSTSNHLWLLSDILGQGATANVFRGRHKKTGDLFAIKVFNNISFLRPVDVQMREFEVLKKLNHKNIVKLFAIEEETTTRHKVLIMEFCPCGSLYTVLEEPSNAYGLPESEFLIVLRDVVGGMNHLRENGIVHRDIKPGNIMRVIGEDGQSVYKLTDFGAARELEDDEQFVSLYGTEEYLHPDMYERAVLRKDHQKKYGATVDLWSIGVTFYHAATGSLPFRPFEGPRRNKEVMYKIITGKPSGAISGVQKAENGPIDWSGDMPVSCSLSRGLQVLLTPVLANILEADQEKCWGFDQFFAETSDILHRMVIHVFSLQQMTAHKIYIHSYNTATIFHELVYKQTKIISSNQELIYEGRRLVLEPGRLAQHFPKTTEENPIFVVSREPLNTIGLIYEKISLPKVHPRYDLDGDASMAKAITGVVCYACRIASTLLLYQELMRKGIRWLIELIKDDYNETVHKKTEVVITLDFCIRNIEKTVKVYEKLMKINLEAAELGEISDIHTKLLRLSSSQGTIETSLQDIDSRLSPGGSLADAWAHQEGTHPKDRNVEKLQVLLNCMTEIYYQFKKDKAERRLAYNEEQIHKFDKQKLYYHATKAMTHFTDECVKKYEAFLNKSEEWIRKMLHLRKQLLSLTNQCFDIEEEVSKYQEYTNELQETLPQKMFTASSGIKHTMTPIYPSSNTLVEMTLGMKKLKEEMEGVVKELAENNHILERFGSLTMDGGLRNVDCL

[6] = molecular target: Serine/threonine-protein kinase DCLK3 (Homo sapiens) (UniProt Q9C098); details: Compound concentration 1000.0 nM
[7] = molecular target: NUAK family SNF1-like kinase 2 (Homo sapiens) (UniProt Q9H093); details: Compound concentration 1000.0 nM
[8] = molecular target: Fibroblast growth factor receptor 1 (Homo sapiens) (UniProt P11362); details: Compound concentration 1000.0 nM
Chain of Fibroblast growth factor receptor 1 (Homo sapiens) (P11362 22-822 limits assumed): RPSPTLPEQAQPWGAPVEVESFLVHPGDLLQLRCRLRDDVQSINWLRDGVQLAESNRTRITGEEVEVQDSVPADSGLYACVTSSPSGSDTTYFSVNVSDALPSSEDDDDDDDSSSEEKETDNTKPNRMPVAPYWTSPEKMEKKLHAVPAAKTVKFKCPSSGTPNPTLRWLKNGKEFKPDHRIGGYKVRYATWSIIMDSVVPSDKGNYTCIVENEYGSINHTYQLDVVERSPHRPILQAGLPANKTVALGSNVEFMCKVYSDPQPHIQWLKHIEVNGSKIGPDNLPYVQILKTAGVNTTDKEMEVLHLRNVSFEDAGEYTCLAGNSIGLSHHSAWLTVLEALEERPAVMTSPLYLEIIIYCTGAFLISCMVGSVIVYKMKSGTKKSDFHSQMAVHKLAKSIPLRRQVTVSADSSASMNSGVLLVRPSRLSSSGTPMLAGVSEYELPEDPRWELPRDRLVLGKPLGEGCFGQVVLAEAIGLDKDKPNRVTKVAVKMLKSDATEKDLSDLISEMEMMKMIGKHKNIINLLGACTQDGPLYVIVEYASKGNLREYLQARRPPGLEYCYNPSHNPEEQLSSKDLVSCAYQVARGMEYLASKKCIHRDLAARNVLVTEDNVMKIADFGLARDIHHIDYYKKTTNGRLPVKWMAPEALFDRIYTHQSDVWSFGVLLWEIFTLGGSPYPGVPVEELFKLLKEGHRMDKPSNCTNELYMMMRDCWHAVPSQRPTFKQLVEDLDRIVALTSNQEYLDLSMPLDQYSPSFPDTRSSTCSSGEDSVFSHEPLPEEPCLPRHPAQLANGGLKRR

[9] = tested on: Receptor-type tyrosine-protein kinase FLT3 (Homo sapiens), P36888 [R834Q]; details: Compound concentration 1000.0 nM
[10] = molecular target: 5'-AMP-activated protein kinase catalytic subunit alpha-1 (Homo sapiens) (UniProt Q13131); details: Compound concentration 1000.0 nM
Chain of 5'-AMP-activated protein kinase catalytic subunit alpha-1 (Homo sapiens) (Q13131 whole entry, looked up): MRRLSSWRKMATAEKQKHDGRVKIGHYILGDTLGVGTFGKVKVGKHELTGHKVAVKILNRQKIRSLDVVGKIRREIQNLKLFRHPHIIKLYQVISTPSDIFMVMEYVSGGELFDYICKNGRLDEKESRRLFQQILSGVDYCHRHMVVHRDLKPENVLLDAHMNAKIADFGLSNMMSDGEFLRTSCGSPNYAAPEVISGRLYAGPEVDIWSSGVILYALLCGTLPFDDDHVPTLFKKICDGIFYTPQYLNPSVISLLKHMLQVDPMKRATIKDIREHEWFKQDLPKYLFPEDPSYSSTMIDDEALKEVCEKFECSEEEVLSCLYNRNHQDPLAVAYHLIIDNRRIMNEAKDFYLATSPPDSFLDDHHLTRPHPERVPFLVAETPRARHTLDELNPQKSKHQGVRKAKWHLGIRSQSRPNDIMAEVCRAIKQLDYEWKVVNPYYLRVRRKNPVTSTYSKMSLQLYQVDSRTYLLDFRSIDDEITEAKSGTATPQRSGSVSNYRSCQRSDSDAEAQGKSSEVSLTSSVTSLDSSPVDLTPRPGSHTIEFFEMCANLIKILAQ

[11] = molecular target: Tyrosine-protein kinase Lck (Homo sapiens) (UniProt P06239); details: Compound concentration 1000.0 nM
[12] = molecular target: Eukaryotic translation initiation factor 2-alpha kinase 1 (Homo sapiens) (UniProt Q9BQI3); details: Compound concentration 1000.0 nM
[13] = molecular target: Dual specificity tyrosine-phosphorylation-regulated kinase 1B (Homo sapiens) (UniProt Q9Y463); details: Compound concentration 1000.0 nM
[14] = molecular target: Dual specificity testis-specific protein kinase 1 (Homo sapiens) (UniProt Q15569); details: Compound concentration 1000.0 nM
[15] = molecular target: Macrophage colony-stimulating factor 1 receptor (Homo sapiens) (UniProt P07333); details: Compound concentration 1000.0 nM
[16] = molecular target: Rhodopsin kinase GRK1 (Homo sapiens) (UniProt Q15835); details: Compound concentration 1000.0 nM
Chain of Rhodopsin kinase GRK1 (Homo sapiens) (Q15835 whole entry): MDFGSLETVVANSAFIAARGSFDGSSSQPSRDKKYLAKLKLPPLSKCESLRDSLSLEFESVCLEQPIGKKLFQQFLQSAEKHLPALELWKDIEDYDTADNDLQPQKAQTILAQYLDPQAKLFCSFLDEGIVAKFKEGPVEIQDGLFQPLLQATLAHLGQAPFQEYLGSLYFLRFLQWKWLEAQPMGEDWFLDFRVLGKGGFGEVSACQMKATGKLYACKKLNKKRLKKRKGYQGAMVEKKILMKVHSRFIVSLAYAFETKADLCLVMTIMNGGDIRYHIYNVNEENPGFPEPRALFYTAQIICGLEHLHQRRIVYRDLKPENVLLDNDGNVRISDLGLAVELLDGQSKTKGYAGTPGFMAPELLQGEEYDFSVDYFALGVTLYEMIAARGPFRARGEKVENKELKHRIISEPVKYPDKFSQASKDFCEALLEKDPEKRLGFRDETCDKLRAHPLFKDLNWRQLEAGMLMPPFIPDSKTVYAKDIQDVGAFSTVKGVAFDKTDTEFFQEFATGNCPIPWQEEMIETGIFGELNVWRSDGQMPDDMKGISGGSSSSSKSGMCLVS

[17] = molecular target: Alpha-1B adrenergic receptor (Homo sapiens) (UniProt P35368); details: Compound concentration 10.0 uM
Chain of Alpha-1B adrenergic receptor (Homo sapiens) (P35368 whole entry): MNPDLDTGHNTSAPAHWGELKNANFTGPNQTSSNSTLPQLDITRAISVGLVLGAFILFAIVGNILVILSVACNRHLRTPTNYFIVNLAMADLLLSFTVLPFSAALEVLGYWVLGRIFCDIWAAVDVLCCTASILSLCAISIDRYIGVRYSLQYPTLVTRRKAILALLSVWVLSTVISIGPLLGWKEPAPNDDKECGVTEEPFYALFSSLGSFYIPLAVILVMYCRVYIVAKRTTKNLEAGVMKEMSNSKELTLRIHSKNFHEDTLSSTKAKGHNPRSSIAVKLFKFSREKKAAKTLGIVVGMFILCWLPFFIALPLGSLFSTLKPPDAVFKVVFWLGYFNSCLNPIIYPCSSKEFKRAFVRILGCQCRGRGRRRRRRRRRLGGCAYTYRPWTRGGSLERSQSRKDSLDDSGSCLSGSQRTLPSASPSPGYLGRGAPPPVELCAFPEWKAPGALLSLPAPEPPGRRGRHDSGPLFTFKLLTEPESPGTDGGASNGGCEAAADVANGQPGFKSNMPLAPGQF

[18] = molecular target: Serine/threonine-protein kinase MARK1 (Homo sapiens) (UniProt Q9P0L2); details: Compound concentration 1000.0 nM
[19] = molecular target: Cyclin-dependent kinase 7 (Homo sapiens) (UniProt P50613); details: Compound concentration 1000.0 nM
[20] = molecular target: Dual specificity mitogen-activated protein kinase kinase 3 (Homo sapiens) (UniProt P46734); details: Compound concentration 1000.0 nM
Chain of Dual specificity mitogen-activated protein kinase kinase 3 (Homo sapiens) (P46734 whole entry): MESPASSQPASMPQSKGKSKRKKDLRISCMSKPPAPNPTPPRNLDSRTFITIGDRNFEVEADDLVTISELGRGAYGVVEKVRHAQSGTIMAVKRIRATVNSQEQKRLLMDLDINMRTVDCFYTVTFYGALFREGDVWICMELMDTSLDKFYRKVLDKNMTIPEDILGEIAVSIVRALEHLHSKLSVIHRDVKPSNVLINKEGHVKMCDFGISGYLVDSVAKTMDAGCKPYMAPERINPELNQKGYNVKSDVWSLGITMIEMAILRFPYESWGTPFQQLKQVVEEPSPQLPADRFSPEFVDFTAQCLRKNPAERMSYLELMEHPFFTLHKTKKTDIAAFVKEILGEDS

[21] = molecular target: SRSF protein kinase 2 (Homo sapiens) (UniProt P78362); details: Compound concentration 1000.0 nM
[22] = molecular target: Aurora kinase C (Homo sapiens) (UniProt Q9UQB9); details: Compound concentration 1000.0 nM
[23] = molecular target: Cyclin-dependent kinase 15 (Homo sapiens) (UniProt Q96Q40); details: Compound concentration 1000.0 nM
[24] = molecular target: Vascular endothelial growth factor receptor 3 (Homo sapiens) (UniProt P35916); details: Compound concentration 1000.0 nM
[25] = molecular target: Serine/threonine-protein kinase TAO3 (Homo sapiens) (UniProt Q9H2K8); details: Compound concentration 1000.0 nM
[26] = molecular target: Bone morphogenetic protein receptor type-2 (Homo sapiens) (UniProt Q13873); details: Compound concentration 1000.0 nM
[27] = molecular target: STE20/SPS1-related proline-alanine-rich protein kinase (Homo sapiens) (UniProt Q9UEW8); details: Compound concentration 1000.0 nM
[28] = molecular target: G protein-coupled receptor kinase 4 (Homo sapiens) (UniProt P32298); details: Compound concentration 1000.0 nM
[29] = molecular target: Serine/threonine-protein kinase Chk2 (Homo sapiens) (UniProt O96017); details: Compound concentration 1000.0 nM
[30] = molecular target: 5-hydroxytryptamine receptor 2C (Homo sapiens) (UniProt P28335); details: Compound concentration 10.0 uM
Chain of 5-hydroxytryptamine receptor 2C (Homo sapiens) (P28335 whole entry): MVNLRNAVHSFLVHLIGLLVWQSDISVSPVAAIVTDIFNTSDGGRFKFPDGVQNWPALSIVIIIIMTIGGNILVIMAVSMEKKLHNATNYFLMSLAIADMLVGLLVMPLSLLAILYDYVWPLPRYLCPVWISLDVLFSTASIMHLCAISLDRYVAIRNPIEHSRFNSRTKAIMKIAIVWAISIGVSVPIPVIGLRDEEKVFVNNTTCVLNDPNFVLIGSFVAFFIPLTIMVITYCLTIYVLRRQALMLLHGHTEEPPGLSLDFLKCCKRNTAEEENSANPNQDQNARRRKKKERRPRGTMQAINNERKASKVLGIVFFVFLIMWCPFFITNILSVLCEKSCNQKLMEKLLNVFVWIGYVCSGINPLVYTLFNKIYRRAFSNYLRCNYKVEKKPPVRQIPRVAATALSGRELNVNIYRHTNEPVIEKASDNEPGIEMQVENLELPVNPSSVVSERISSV

[31] = molecular target: Serine/threonine-protein kinase Sgk3 (Homo sapiens) (UniProt Q96BR1); details: Compound concentration 1000.0 nM
Chain of Serine/threonine-protein kinase Sgk3 (Homo sapiens) (Q96BR1 whole entry): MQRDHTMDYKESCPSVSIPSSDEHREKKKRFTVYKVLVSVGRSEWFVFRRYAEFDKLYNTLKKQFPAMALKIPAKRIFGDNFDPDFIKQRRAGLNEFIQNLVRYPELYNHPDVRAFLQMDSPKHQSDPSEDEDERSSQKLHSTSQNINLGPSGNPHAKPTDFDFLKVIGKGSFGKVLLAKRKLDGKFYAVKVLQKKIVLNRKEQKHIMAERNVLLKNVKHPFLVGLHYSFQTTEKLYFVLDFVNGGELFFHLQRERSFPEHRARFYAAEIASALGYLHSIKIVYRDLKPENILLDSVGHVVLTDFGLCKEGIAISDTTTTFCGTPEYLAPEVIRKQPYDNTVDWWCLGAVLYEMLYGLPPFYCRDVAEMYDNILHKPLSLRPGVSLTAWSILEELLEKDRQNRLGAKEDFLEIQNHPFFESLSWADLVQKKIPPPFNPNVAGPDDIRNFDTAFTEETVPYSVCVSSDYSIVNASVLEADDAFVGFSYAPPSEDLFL

[32] = molecular target: Tyrosine-protein kinase Fer (Homo sapiens) (UniProt P16591); details: Compound concentration 1000.0 nM
[33] = molecular target: Serine/threonine-protein kinase Nek5 (Homo sapiens) (UniProt Q6P3R8); details: Compound concentration 1000.0 nM
[34] = molecular target: Tyrosine-protein kinase JAK2 (Homo sapiens) (UniProt O60674); details: Compound concentration 1000.0 nM
[35] = molecular target: Mitogen-activated protein kinase kinase kinase kinase 4 (Homo sapiens) (UniProt O95819); details: Compound concentration 1000.0 nM
[36] = molecular target: Serine/threonine-protein kinase Nek7 (Homo sapiens) (UniProt Q8TDX7); details: Compound concentration 1000.0 nM
[37] = molecular target: Serine/threonine-protein kinase SBK1 (Homo sapiens) (UniProt Q52WX2); details: Compound concentration 1000.0 nM
[38] = molecular target: Serine/threonine-protein kinase MRCK beta (Homo sapiens) (UniProt Q9Y5S2); details: Compound concentration 1000.0 nM
[39] = molecular target: Ephrin type-A receptor 6 (Homo sapiens) (UniProt Q9UF33); details: Compound concentration 1000.0 nM
[40] = molecular target: Phosphatidylinositol 3-kinase catalytic subunit type 3 (Homo sapiens) (UniProt Q8NEB9); details: Compound concentration 1000.0 nM
[41] = molecular target: MAP/microtubule affinity-regulating kinase 4 (Homo sapiens) (UniProt Q96L34); details: Compound concentration 1000.0 nM
[42] = molecular target: Calcium/calmodulin-dependent protein kinase type II subunit beta (Homo sapiens) (UniProt Q13554); details: Compound concentration 1000.0 nM
[43] = molecular target: Wee1-like protein kinase (Homo sapiens) (UniProt P30291); details: Compound concentration 1000.0 nM
[44] = molecular target: Serine/threonine-protein kinase PLK1 (Homo sapiens) (UniProt P53350); details: Compound concentration 1000.0 nM
[45] = molecular target: Serine/threonine-protein kinase 38-like (Homo sapiens) (UniProt Q9Y2H1); details: Compound concentration 1000.0 nM

Chain of Ribosomal protein S6 kinase beta-1 (Homo sapiens) (P23443 whole entry, looked up): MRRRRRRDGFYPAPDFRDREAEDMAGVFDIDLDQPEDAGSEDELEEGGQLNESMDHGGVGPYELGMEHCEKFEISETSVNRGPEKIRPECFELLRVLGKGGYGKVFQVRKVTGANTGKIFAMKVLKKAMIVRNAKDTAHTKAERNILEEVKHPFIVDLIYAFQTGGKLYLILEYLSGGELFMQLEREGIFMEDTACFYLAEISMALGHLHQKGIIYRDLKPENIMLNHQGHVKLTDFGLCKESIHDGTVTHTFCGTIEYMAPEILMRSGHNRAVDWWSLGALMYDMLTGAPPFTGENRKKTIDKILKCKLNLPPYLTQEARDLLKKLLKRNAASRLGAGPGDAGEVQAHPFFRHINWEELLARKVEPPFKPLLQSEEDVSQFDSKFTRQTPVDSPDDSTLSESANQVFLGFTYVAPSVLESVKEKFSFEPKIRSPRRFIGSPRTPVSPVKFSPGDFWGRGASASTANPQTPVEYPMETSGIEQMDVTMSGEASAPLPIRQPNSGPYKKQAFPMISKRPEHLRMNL

COc1cccc(CNC(=O)c2nc3scc(COCc4ccc(C(=O)O)cc4)c3c(=O)[nH]2)c1 [T-26c]
inactive: residual activity [1] 96.1% | residual activity [2] 100% | residual activity [3] 100% | residual activity [4] 79.2% | residual activity [5] 94% | residual activity [6] 100% | residual activity [7] 76.4% | residual activity [8] 86.5% | residual activity [9] 77.9% | residual activity [10] 70.3% | residual activity [11] 100% | residual activity [12] 88% | residual activity [13] 100% | residual activity [14] 82.8% | residual activity [15] 100% | residual activity [16] 57.5% | inhibition [17] 7.58% | residual activity [18] 96.7% | residual activity [19] 80.5% | residual activity [20] 92.9% | residual activity [21] 100% | residual activity [22] 67.3% | residual activity [23] 97.6% | residual activity [24] 100% | residual activity [25] 72.3% | residual activity [26] 71.8% | residual activity [27] 100% | residual activity [28] 72.1% | residual activity [29] 92% | inhibition [30] 12.5% | residual activity [31] 69.2% | residual activity [32] 100% | residual activity [33] 100% | residual activity [34] 100% | residual activity [35] 92.3% | residual activity [36] 100% | residual activity [37] 53.7% | residual activity [38] 99.5% | residual activity [39] 85.4% | residual activity [40] 58.6% | residual activity [41] 89.2% | residual activity [42] 96.8% | residual activity [43] 95.7% | residual activity [44] 54.1% | residual activity [45] 87.7%
